Test results published in publication PMC5218480 (PLoS ONE, 2017).

Test system: MV-4-11 cells
Assay: Gene expression microarray analysis (Affymetrix PrimeView) and GSEA
Format: cell-based, human
Design: RFU PODN (11730768_x_at) / Fold change /veh PODN (11730768_x_at) / RFU LINC00158 (11744669_a_at) / Fold change /veh LINC00158 (11744669_a_at) / RFU DUSP10 (11751237_a_at) / Fold change /veh DUSP10 (11751237_a_at) / RFU ID3 (11757404_x_at) / Fold change /veh ID3 (11757404_x_at) / RFU PLEKHG5 (11737974_s_at) / Fold change /veh PLEKHG5 (11737974_s_at) / RFU LRRC4B (11730491_at) / Fold change /veh LRRC4B (11730491_at) / RFU GIMAP4 (11747438_a_at) / Fold change /veh GIMAP4 (11747438_a_at) / RFU KRT8 (11758183_x_at) / Fold change /veh KRT8 (11758183_x_at) / RFU CNN1 (11734310_a_at) / Fold change /veh CNN1 (11734310_a_at) / RFU VPS37D (11726825_at) / Fold change /veh VPS37D (11726825_at) / RFU C10orf10 (11716522_x_at) / Fold change /veh C10orf10 (11716522_x_at) / RFU KIR2DL2 /// KIR2DL4 /// KIR2DL5A /// KIR2DL5B /// KIR2DS1 /// KIR2DS2 /// KIR2DS3 /// KIR2DS4 /// KIR3DL3 /// KIR3DL3 /// KIR3DS1 (11738374_at) / Fold change /veh KIR2DL2 /// KIR2DL4 /// KIR2DL5A /// KIR2DL5B /// KIR2DS1 /// KIR2DS2 /// KIR2DS3 /// KIR2DS4 /// KIR3DL3 /// KIR3DL3 /// KIR3DS1 (11738374_at) / RFU C1QL1 (11718748_at) / Fold change /veh C1QL1 (11718748_at) / RFU TMPRSS4 (11747572_a_at) / Fold change /veh TMPRSS4 (11747572_a_at) / RFU HAMP (11756126_x_at) / Fold change /veh HAMP (11756126_x_at) / RFU RNFT2 (11725882_a_at) / Fold change /veh RNFT2 (11725882_a_at) / RFU NR4A2 (11747474_a_at) / Fold change /veh NR4A2 (11747474_a_at) / RFU ABCC12 (11746883_a_at) / Fold change /veh ABCC12 (11746883_a_at) / RFU TMEM136 (11760407_x_at) / Fold change /veh TMEM136 (11760407_x_at) / RFU CLDN22 /// WWC2 (11732394_at) / Fold change /veh CLDN22 /// WWC2 (11732394_at) / RFU HLA-DPB1 (11760878_x_at) / Fold change /veh HLA-DPB1 (11760878_x_at) / RFU SPINT1 (11716480_a_at) / Fold change /veh SPINT1 (11716480_a_at) / RFU GAP43 (11754022_s_at) / Fold change /veh GAP43 (11754022_s_at) / RFU A4GNT (11735810_at) / Fold change /veh A4GNT (11735810_at) / RFU PRB3 (11715151_x_at) / Fold change /veh PRB3 (11715151_x_at) / RFU TUBB4B (11761932_at) / Fold change /veh TUBB4B (11761932_at) / RFU CAPN14 (11732068_a_at) / Fold change /veh CAPN14 (11732068_a_at) / RFU TMCC2 (11721928_a_at) / Fold change /veh TMCC2 (11721928_a_at) / RFU IRGQ (11745062_a_at) / Fold change /veh IRGQ (11745062_a_at) / RFU FAM174B (11720279_a_at) / Fold change /veh FAM174B (11720279_a_at) / RFU TMPRSS4 (11748680_a_at) / Fold change /veh TMPRSS4 (11748680_a_at) / RFU FAM212B (11763350_a_at) / Fold change /veh FAM212B (11763350_a_at) / RFU PLEKHG5 (11743358_a_at) / Fold change /veh PLEKHG5 (11743358_a_at) / RFU ZSCAN30 (11745921_a_at) / Fold change /veh ZSCAN30 (11745921_a_at) / RFU CMKLR1 (11741424_a_at) / Fold change /veh CMKLR1 (11741424_a_at) / RFU LOC101060620 /// MAPK8IP1 (11723275_at) / Fold change /veh LOC101060620 /// MAPK8IP1 (11723275_at) / RFU SPTSSB (11747773_x_at) / Fold change /veh SPTSSB (11747773_x_at) / RFU PRSS12 (11739890_at) / Fold change /veh PRSS12 (11739890_at) / RFU BIN1 (11741810_x_at) / Fold change /veh BIN1 (11741810_x_at) / RFU WNT11 (11732464_a_at) / Fold change /veh WNT11 (11732464_a_at) / RFU C10orf10 (11716521_a_at) / Fold change /veh C10orf10 (11716521_a_at) / RFU C5orf56 (11738089_at) / Fold change /veh C5orf56 (11738089_at) / RFU CYB561 (11721691_x_at) / Fold change /veh CYB561 (11721691_x_at) / RFU ANKRD19P (11752326_a_at) / Fold change /veh ANKRD19P (11752326_a_at) / RFU OR2T12 /// OR2T33 /// OR2T8 (11738714_s_at) / Fold change /veh OR2T12 /// OR2T33 /// OR2T8 (11738714_s_at) / RFU VCAN (11748164_a_at) / Fold change /veh VCAN (11748164_a_at) / RFU JSRP1 (11732532_at) / Fold change /veh JSRP1 (11732532_at) / RFU KRTAP10-11 (11738290_x_at) / Fold change /veh KRTAP10-11 (11738290_x_at) / RFU MYO3A (11730013_a_at) / Fold change /veh MYO3A (11730013_a_at) / RFU EBF3 (11725865_a_at) / Fold change /veh EBF3 (11725865_a_at) / RFU CAMK2N1 (11719241_x_at) / Fold change /veh CAMK2N1 (11719241_x_at) / RFU C5orf56 (11738088_a_at) / Fold change /veh C5orf56 (11738088_a_at) / RFU OLFML3 (11715873_a_at) / Fold change /veh OLFML3 (11715873_a_at) / RFU LOC100653217 /// NTM (11731650_a_at) / Fold change /veh LOC100653217 /// NTM (11731650_a_at) / RFU MAPK11 (11762145_a_at) / Fold change /veh MAPK11 (11762145_a_at) / RFU FIZ1 (11724087_x_at) / Fold change /veh FIZ1 (11724087_x_at) / RFU OASL (11726364_x_at) / Fold change /veh OASL (11726364_x_at) / RFU SOX15 (11748057_x_at) / Fold change /veh SOX15 (11748057_x_at) / RFU CD79A (11719716_a_at) / Fold change /veh CD79A (11719716_a_at) / RFU HIST1H1D (11736915_at) / Fold change /veh HIST1H1D (11736915_at) / RFU CASKIN2 (11723855_a_at) / Fold change /veh CASKIN2 (11723855_a_at) / RFU LOC730098 (11760151_x_at) / Fold change /veh LOC730098 (11760151_x_at) / RFU OR4N2 (11742367_at) / Fold change /veh OR4N2 (11742367_at) / RFU PRRT2 (11749266_a_at) / Fold change /veh PRRT2 (11749266_a_at) / RFU SNX32 (11753110_a_at) / Fold change /veh SNX32 (11753110_a_at) / RFU CDHR5 (11726645_a_at) / Fold change /veh CDHR5 (11726645_a_at) / RFU RCAN1 (11760418_a_at) / Fold change /veh RCAN1 (11760418_a_at) / RFU FAM167A (11723789_a_at) / Fold change /veh FAM167A (11723789_a_at) / RFU FAM26E (11764081_at) / Fold change /veh FAM26E (11764081_at) / RFU ISYNA1 (11749810_s_at) / Fold change /veh ISYNA1 (11749810_s_at) / RFU ACY1 (11761880_at) / Fold change /veh ACY1 (11761880_at) / RFU 11764098_at / Fold change /veh 11764098_at / RFU SAMD14 (11745864_x_at) / Fold change /veh SAMD14 (11745864_x_at) / RFU NPB (11741838_a_at) / Fold change /veh NPB (11741838_a_at) / RFU TMPRSS6 (11731388_a_at) / Fold change /veh TMPRSS6 (11731388_a_at) / RFU KRTAP10-2 (11738614_at) / Fold change /veh KRTAP10-2 (11738614_at) / RFU ARHGAP8 /// PRR5-ARHGAP8 (11727945_x_at) / Fold change /veh ARHGAP8 /// PRR5-ARHGAP8 (11727945_x_at) / RFU KRTAP5-7 /// NADSYN1 (11734609_at) / Fold change /veh KRTAP5-7 /// NADSYN1 (11734609_at) / RFU RASL12 (11751679_a_at) / Fold change /veh RASL12 (11751679_a_at) / RFU CDKN2B (11736163_a_at) / Fold change /veh CDKN2B (11736163_a_at) / RFU PRF1 (11729649_at) / Fold change /veh PRF1 (11729649_at) / RFU, ZNF638 /// ZNF638-IT1 / Fold change vs veh, ZNF638 /// ZNF638-IT1 / RFU, PANK3 / Fold change vs veh, PANK3 / RFU, SH3YL1 / Fold change vs veh, SH3YL1 / RFU, ZEB2 / Fold change vs veh, ZEB2 / RFU, NRIP1 / Fold change vs veh, NRIP1 / RFU, PTTG1IP / Fold change vs veh, PTTG1IP / RFU, CAPN2 / Fold change vs veh, CAPN2 / RFU, MED14 / Fold change vs veh, MED14 / RFU, SNORA58 / Fold change vs veh, SNORA58 / RFU, C1orf63 / Fold change vs veh, C1orf63 / RFU, LRRFIP1 / Fold change vs veh, LRRFIP1 / RFU, NDUFAF7 / Fold change vs veh, NDUFAF7 / RFU, SLC12A2 / Fold change vs veh, SLC12A2 / RFU, IBTK / Fold change vs veh, IBTK / RFU, ESF1 / Fold change vs veh, ESF1 / Fold change vs veh, TMEM50B / RFU, TAOK1 / Fold change vs veh, TAOK1 / RFU, ACBD3 / Fold change vs veh, ACBD3 / RFU, TMA16 / Fold change vs veh, TMA16 / RFU, RWDD3 / Fold change vs veh, RWDD3 / RFU, BCAT1 / Fold change vs veh, BCAT1 / RFU, EDEM3 / Fold change vs veh, EDEM3 / RFU, TMEM33 / Fold change vs veh, TMEM33 / RFU, WDR75 / Fold change vs veh, WDR75 / RFU, AHCTF1 / Fold change vs veh, AHCTF1 / RFU, TFRC / Fold change vs veh, TFRC / RFU, ZDHHC17 / Fold change vs veh, ZDHHC17 / RFU, NOM1 / Fold change vs veh, NOM1 / RFU, ARL8B / Fold change vs veh, ARL8B / RFU, ZBTB11 / Fold change vs veh, ZBTB11 / RFU, TAMM41 / Fold change vs veh, TAMM41 / RFU, KIAA1704 /// LOC100996395 / Fold change vs veh, KIAA1704 /// LOC100996395 / RFU, ING1 / Fold change vs veh, ING1 / RFU, TRMT61B / Fold change vs veh, TRMT61B / RFU, FUBP3 / Fold change vs veh, FUBP3 / RFU, TP53 / Fold change vs veh, TP53 / RFU, TNKS2 / Fold change vs veh, TNKS2 / RFU, ZFP14 / Fold change vs veh, ZFP14 / RFU, ACTR2 / Fold change vs veh, ACTR2 / RFU, PPP3R1 / Fold change vs veh, PPP3R1 / RFU, PIK3R1 / Fold change vs veh, PIK3R1 / RFU, HNRNPA1 / Fold change vs veh, HNRNPA1 / RFU, RNF170 / Fold change vs veh, RNF170 / RFU, ZNF28 / Fold change vs veh, ZNF28 / RFU, RNGTT / Fold change vs veh, RNGTT / RFU, OGT / Fold change vs veh, OGT / RFU, BRD1 / Fold change vs veh, BRD1 / RFU, MARS / Fold change vs veh, MARS / RFU, ZNF655 / Fold change vs veh, ZNF655 / RFU, FAHD1 / Fold change vs veh, FAHD1 / RFU, BDP1 / Fold change vs veh, BDP1 / RFU, LRRCC1 / Fold change vs veh, LRRCC1 / RFU, ARID1A / Fold change vs veh, ARID1A / RFU, ZNF146 / Fold change vs veh, ZNF146 / RFU, ZNF330 / Fold change vs veh, ZNF330 / RFU, GPN3 / Fold change vs veh, GPN3 / RFU, C9orf123 / Fold change vs veh, C9orf123 / RFU, N4BP2L2 / Fold change vs veh, N4BP2L2 / RFU, ARFIP1 / Fold change vs veh, ARFIP1 / RFU, FAM179B / Fold change vs veh, FAM179B / RFU, BCL10 / Fold change vs veh, BCL10 / RFU, UHRF1BP1L / Fold change vs veh, UHRF1BP1L / RFU, BET1 / Fold change vs veh, BET1 / RFU, CNOT2 / Fold change vs veh, CNOT2 / RFU, ZNF268 / Fold change vs veh, ZNF268 / Fold change vs veh, ZNF507 / RFU, DGCR2 / Fold change vs veh, DGCR2 / RFU, WDSUB1 / Fold change vs veh, WDSUB1 / Fold change vs veh, HSP90B1 /// MIR3652 / RFU, ADSS / Fold change vs veh, ADSS / RFU, GK / Fold change vs veh, GK / RFU, ZNF148 / Fold change vs veh, ZNF148 / RFU, TAF9 / Fold change vs veh, TAF9 / RFU, SLC1A5 / Fold change vs veh, SLC1A5 / RFU, SLMO2 / Fold change vs veh, SLMO2 / RFU, ABCC4 / Fold change vs veh, ABCC4 / RFU, LOC101060439 /// RAP1B / Fold change vs veh, LOC101060439 /// RAP1B / RFU, RFX7 / Fold change vs veh, RFX7 / RFU, GTPBP10 / Fold change vs veh, GTPBP10 / RFU, CNEP1R1 / Fold change vs veh, CNEP1R1 / RFU, BIVM-ERCC5 /// ERCC5 / Fold change vs veh, BIVM-ERCC5 /// ERCC5 / RFU, ILF3 / Fold change vs veh, ILF3 / RFU 11762660_at / Fold change /veh 11762660_at / RFU VCAN (11757783_s_at) / Fold change /veh VCAN (11757783_s_at) / RFU DDX43 (11728927_at) / Fold change /veh DDX43 (11728927_at) / RFU KRT8 (11758188_x_at) / Fold change /veh KRT8 (11758188_x_at) / RFU NKD1 (11759106_at) / Fold change /veh NKD1 (11759106_at) / RFU SRD5A1 (11742802_a_at) / Fold change /veh SRD5A1 (11742802_a_at) / RFU TPSAB1 /// TPSB2 (11721975_s_at) / Fold change /veh TPSAB1 /// TPSB2 (11721975_s_at) / RFU GSTM3 (11746129_a_at) / Fold change /veh GSTM3 (11746129_a_at) / RFU IL23R (11737362_x_at) / Fold change /veh IL23R (11737362_x_at) / RFU TMEM51 (11727254_a_at) / Fold change /veh TMEM51 (11727254_a_at) / RFU PIWIL2 (11732686_x_at) / Fold change /veh PIWIL2 (11732686_x_at) / RFU ORM1 (11744905_x_at) / Fold change /veh ORM1 (11744905_x_at) / RFU CCDC152 (11743942_at) / Fold change /veh CCDC152 (11743942_at) / RFU ECM1 (11717891_a_at) / Fold change /veh ECM1 (11717891_a_at) / RFU IL23R (11748794_a_at) / Fold change /veh IL23R (11748794_a_at) / RFU TNFAIP8L3 (11732012_x_at) / Fold change /veh TNFAIP8L3 (11732012_x_at) / RFU MBOAT4 (11741988_at) / Fold change /veh MBOAT4 (11741988_at) / RFU 11764193_at / Fold change /veh 11764193_at / RFU TMEM53 (11763286_at) / Fold change /veh TMEM53 (11763286_at) / RFU MAGEB2 (11727129_at) / Fold change /veh MAGEB2 (11727129_at) / RFU TMEM200A (11744735_a_at) / Fold change /veh TMEM200A (11744735_a_at) / RFU CCDC152 (11751479_a_at) / Fold change /veh CCDC152 (11751479_a_at) / RFU FAM211A (11726209_a_at) / Fold change /veh FAM211A (11726209_a_at) / RFU RGS16 (11746705_a_at) / Fold change /veh RGS16 (11746705_a_at) / RFU VCAN (11755009_s_at) / Fold change /veh VCAN (11755009_s_at) / RFU RHOB (11743442_s_at) / Fold change /veh RHOB (11743442_s_at) / RFU RGS16 (11720943_a_at) / Fold change /veh RGS16 (11720943_a_at) / RFU RGS16 (11720944_at) / Fold change /veh RGS16 (11720944_at) / RFU, VPS4B / Fold change vs veh, VPS4B / RFU, CREB1 / Fold change vs veh, CREB1 / RFU, DNAJC13 / Fold change vs veh, DNAJC13 / RFU, GNAQ / Fold change vs veh, GNAQ / RFU, CDK5R1 / Fold change vs veh, CDK5R1 / RFU, ZRANB3 / Fold change vs veh, ZRANB3 / RFU, CUL4A / Fold change vs veh, CUL4A / RFU, CCNY / Fold change vs veh, CCNY / RFU, UFL1 / Fold change vs veh, UFL1 / RFU, COG3 / Fold change vs veh, COG3 / RFU, DIAPH2 / Fold change vs veh, DIAPH2 / RFU, SKA2 / Fold change vs veh, SKA2 / RFU, AFF3 / Fold change vs veh, AFF3 / RFU, LMF1 / Fold change vs veh, LMF1 / RFU, IPO11 / Fold change vs veh, IPO11 / RFU, DFFB / Fold change vs veh, DFFB / RFU, FOXP1 / Fold change vs veh, FOXP1 / RFU, CARD8 / Fold change vs veh, CARD8 / RFU, STRN3 / Fold change vs veh, STRN3 / RFU, ADK / Fold change vs veh, ADK / RFU, RASSF2 / Fold change vs veh, RASSF2 / RFU, WIPF1 / Fold change vs veh, WIPF1 / RFU, LARP1B / Fold change vs veh, LARP1B / RFU, RASA1 / Fold change vs veh, RASA1 / RFU, RB1 / Fold change vs veh, RB1 / RFU, PPFIA1 / Fold change vs veh, PPFIA1 / RFU, MAT2A / Fold change vs veh, MAT2A / RFU, CCT5 / Fold change vs veh, CCT5 / RFU, WDR92 / Fold change vs veh, WDR92 / RFU, CUX1 / Fold change vs veh, CUX1 / RFU, TTC7A / Fold change vs veh, TTC7A / RFU, TMEM135 / Fold change vs veh, TMEM135 / RFU, DEPTOR / Fold change vs veh, DEPTOR / RFU, CPM / Fold change vs veh, CPM / RFU, DNAJB6 / Fold change vs veh, DNAJB6 / RFU, CACNA2D3 / Fold change vs veh, CACNA2D3 / RFU, DTX4 / Fold change vs veh, DTX4 / RFU, TFCP2 / Fold change vs veh, TFCP2 / RFU, GMCL1 /// GMCL1P1 / Fold change vs veh, GMCL1 /// GMCL1P1 / RFU, AEBP2 / Fold change vs veh, AEBP2 / RFU, SNHG1 /// SNORD22 /// SNORD25 /// SNORD26 /// SNORD27 /// SNORD28 /// SNORD29 /// SNORD31 / Fold change vs veh, SNHG1 /// SNORD22 /// SNORD25 /// SNORD26 /// SNORD27 /// SNORD28 /// SNORD29 /// SNORD31 / Fold change (Aza/veh), C12orf56 (ProbeSet 11735607_a_at) / Fold change (ACY-1035/veh), C12orf56 (ProbeSet 11735607_a_at) / Fold change (Aza/veh), FGFR1OP (ProbeSet 11751329_s_at) / Fold change (ACY-1035/veh), FGFR1OP (ProbeSet 11751329_s_at) / Fold change (Aza/veh), VPS36 (ProbeSet 11739960_a_at) / Fold change (ACY-1035/veh), VPS36 (ProbeSet 11739960_a_at) / RFU SYPL1 (11715823_x_at) / Fold change /veh SYPL1 (11715823_x_at) / RFU IGFBP7 (11715501_s_at) / Fold change /veh IGFBP7 (11715501_s_at) / RFU REEP3 (11722064_at) / Fold change /veh REEP3 (11722064_at) / RFU IGLL1 (11728026_x_at) / Fold change /veh IGLL1 (11728026_x_at): dose or concentration left out as unconfirmed
Conditions: MV-4-11 cells, 48 hours

Nc1ccc(-c2cccs2)cc1NC(=O)c1ccc2c(c1)cc(C1CC1)n2CCN1CCOCC1 [ACY-1035]
RFU ANKRD19P (11752326_a_at): 5.89 RFU
